Test results as given in patent publication US7432045B2 (priority 2003, dated 2008).
Square brackets hold non-standard residues; d marks the D form. Peptide text beside a SMILES is read from it. * marks the point of attachment. Biotin = O=C1N[C@H]2[C@H](CS[C@H]2CCCCC(=O)*)N1; Ahx = NCCCCCC(=O)O

Assays:
HSV-1 KOS [1] = assay: Plaque reduction assay; format: cell-based
Method: Cell culture and virus: The procedures for growing Vero cells and preparing high titer stocks of HSV-1 KOS as described in Grau et al., Invest. Ophthal. and Vis. Sci. 30: 2474 (1989) were utilized. Vero cells were maintained in carbonate-buffered DMEM supplemented with 5% calf serum and 5% fetal bovine serum (regular medium). For some studies, cells were switched to serum-free DMEM buffered with 25 mM HEPES (pH 7.4) and allowed to adapt to that medium for 30 min prior to experimental treatments. Vero cells were seeded into wells (0.28 cm^2) of microtiter plates either at 3.5×10^4 cells/well for use 1 day later (8×10^4 cells/well) or at 1×10^4 cells/well for use 3 days later (2×10^5 cells/well).
Plaque reduction assay: Confluent Vero cell cultures in microtiter plates were infected for 1 hour at 37° C. in 40 μL of medium. Except where indicated, peptide treatments in 40 μL of medium lasted from 1 hour before through 1 hour after infection. At the end of the adsorption period, the cultures were re-fed with 100 μL of regular medium. Plaque formation was scored 2 days later and the number of plaques scored per well was normalized to the number counted in the absence of peptide. Using an ocular micrometer, plaque size (π/2×L×S) was determined by measuring the largest plaque diameter (L) and the diameter at a 90° angle to that (S). The size of each of the first 40 scored plaques was measured except when a plaque included less than 10 rounded cells or touched the side of the well.

HSV-1 KOS [2] = conditions: data not shown
cornea = assay: In vivo peptide toxicity, cornea; design: species or system BALB/C mice
Method: (i) Cornea: Four-6-week-old female BALB/C mice (Harlan Sprague Dawley, Indianapolis, Ind.) were anesthetized by halothane inhalation (3-5%). A 2.0 μL drop of serum-free 5×DMEM solution containing 6.1 mM EB, 6.1 mM EBX, 7.5 mM TAT-C, 7.5 mM n50,51 TAT-C, 7.5 mM TAT-Cd, or 11.2 mM bHOMd or serum-free DMEM only (control) was then placed on the cornea and the mice were returned to their cages. Each group consisted of 5 mice, except for 11.2 mM bHOMd, and 7.5 mM TAT-Cd, which consisted of 4 mice. Only the right eye in each mouse received the peptide. Treatments were given 4 times per day at least 2 hrs apart for 7 days. On days 1, 5, and 7, the mice were examined microscopically for evidence of blepharitis, punctate keratopathy, dendrite ulceration and geographic ulceration. Damage to the corneal epithelium was assessed by staining with 1.0% […] and examination under a microscope with blue light. Blepharitis was scored: 1+ for noticeable puffy eyelids, 2+ for puffy eyelids with moderate crusting, 3+ for eye 50% swollen shut with severe crusting, and 4+ for eye totally swollen and crusted shut (Brandt et al., 1992). Punctate keratopathy, dendrite ulceration, and geographic ulceration were scored: 1+ for <25% of the cornea involved, 2+ for 25-50% involved, 3+ for 50-75% involved, and 4+ for >75% involved. The mean disease score for each group of mice on each day was calculated by the sum of disease scores in each group on each day divided by the numbers of mice in that group. On day 7, following the last treatment, the mice were sacrificed and the eyes were removed, fixed in 10% formalin, embedded in paraffin, sectioned (5μ each), and stained with hematoxylin and eosin as we have described previously (Brandt et al., 1996). Sections were then examined for evidence of damage to the cornea, sclera, lens, and retina.

[3] = tested on: influenza A virus (Sydney 05/97,H3N2)
in vitro = conditions: African green monkey
HSV-1 KOS mutant hrR3 = assay: LacZ+ virus (hrR3) entry assay with pre-adsorbed virus (entry block); format: cell-based; conditions: FIG. 7B; read-out: inhibition of entry of pre-adsorbed virus IC50
Method: LacZ^+ virus (hrR3) entry assay: Confluent Vero cell cultures in 96-well microtiter plates were switched to Hepes-buffered serum-free DMEM, cooled on ice to 4° C. for 30 min, and infected with hrR3 for 1 hour at 4° C. in 40 μL of medium. Unattached virus was removed by rinsing with ice-cold medium. Treatments with antiviral peptide SEQ ID NO:1, referred to as EB, or a control peptide which comprised the RRKK tetra-peptide (SEQ ID NO:16) attached to a scrambled version of the membrane transiting peptide RRKKLAALPLVLAAPLAVLA (SEQ ID NO:17) (referred to as EBX), or mock-treatments with peptide-free medium were carried out in serum-free DMEM as indicated. Virus entry was initiated by transferring cultures to 37° C. To inactivate any remaining extracellular virus, cultures were rinsed with PBS and exposed to low pH citrate buffer (40 mM citric acid, 10 mM KCl, 135 mM NaCl, pH 3.0, according to Highlander et al., J. Virol. 61:3356 (1987), for 1 min at 23° C. The citrate was rinsed off with PBS and cultures were maintained in serum-supplemented DMEM until they were fixed with 0.5% gluteraldehyde in 5×PBS for 30 min at 23° C., stained for β-galactosidase activity for 1 hour or overnight at 23° C. with X-gal (Fisher Biotech; BP1615-1) in 1×PBS containing […], 1.3 mM K4Fe(CN)6, and 1.3 mM K3Fe(CN)6, and scored for the presence of blue […] cells.
In these studies, the hrR3 virus was pre-adsorbed to cells for 1 hour at 4° C. before ice cold 25 μM EB or EBX were added in serum-free DMEM. After an additional 1 hour at 4° C., cultures were shifted to 37° C. to initiate virus entry. At 15 min intervals following the temperature shift, any virus remaining outside the cells was inactivated by washing the cultures with low pH citrate buffer. Cultures were then rinsed and returned to peptide-free serum-supplemented DMEM until they were fixed and stained for β-galactosidase 8 hours after the temperature shift.
Two assays were used to assess the ability of the TAT peptides to inhibit infection of Vero cells with the hrR3 virus. In both assays, the virus was preadsorbed to cells at 4° C. and entry was initiated in the presence of peptide by shifting the cultures to a permissive temperature (30-37° C.). One hour later, the peptide was rinsed off. The entry blocking activity was measured in half of the cultures, in which any extracellular virus remaining after the peptide treatment was inactivated with low pH citrate buffer. The rest of the cultures were exposed to PBS instead of citrate buffer and used to measure virus inactivation. Virus inactivation depended on persistent effects of the peptide lasting for a period of eight hours. At the end of that period, all cultures were fixed and infected cells were detected by staining with X-gal.
Virus (m.o.i.=0.025) was preadsorbed to Vero cells for 1 h at 4° C. before cultures were exposed to TAT-C (FIG. 15A), bTAT-9X (FIG. 15B), or n50,51TAT-C (FIGS. 15C, 15D) for 1 h at 33 (FIGS. 15A, 15B), 31 (FIG. 15C), or 37° C. (FIG. 15D). […] Inhibition of entry was measured in the citrate-treated cultures, in which any remaining external virus was inactivated immediately following exposure to peptide (●). Persistent virus inactivation lasting, at least in part, for the 8 h period following exposure to peptide, was measured in the PBS-treated cultures (◯). The IC50s measured in these experiments are included in Table 5.

[4] = tested on: Vero, HeLa, CV-1PD, TM-1, DP-9, CEMx174, NIKS, W12E cells; assay: MTS assay, eight cell lines; conditions: eight cell lines

## NH2 - RRKKAAVALLAVLLALLAPP-COOH (H-RRKKAAVALLAVLLALLAPP-OH) [EBPP]
HSV-1 KOS [1]
  antiviral activity compared to EB: twice as active
HSV-1 KOS [2]
  activity compared to EB in yield reduction assay: twice as active

## CC[C@@H](C)[C@@H](NC(=O)[C@@H](CCCCN)NC(=O)[C@H](NC(=O)[C@@H](CCC(N)=O)NC(=O)[C@@H](CCCNC(=N)N)NC(=O)CCCCCNC(=O)CCCC[C@@H]1SC[C@@H]2NC(=O)N[C@@H]21)[C@H](C)CC)C(=O)N[C@H](Cc1c[nH]c2ccccc12)C(=O)N[C@H](Cc1ccccc1)C(=O)N1CCC[C@@H]1C(=O)N[C@H](CC(N)=O)C(=O)N[C@H](CCCNC(=N)N)C(=O)N[C@H](CCCNC(=N)N)C(=O)N[C@H](CCSC)C(=O)N[C@H](CCCCN)C(=O)N[C@H](Cc1c[nH]c2ccccc12)C(=O)N[C@H](CCCCN)C(=O)N[C@H](CCCCN)C(N)=O [bHOMd, b - RQIKIWFPNRRMKWKK-amide] ({Biotin-Ahx}-[dR][dQ][dI][dK][dI][dW][dF][dP][dN][dR][dR][dM][dK][dW][dK][dK]-NH2)
cornea; calcein staining
  punctate keratopathy: very mild punctate keratopathy
cornea; four times a day for seven days
  blepharitis: mild blepharitis
[3]
  antiviral effect against influenza A virus versus cytotoxic effects: blocks influenza A virus in the absence of cytotoxic effects
MDCK cells
  cytotoxic effects (trypan blue staining): No cytotoxic effects

## CC(C)C[C@H](NC(=O)[C@H](C)NC(=O)[C@H](CCCCN)NC(=O)[C@H](CC(C)C)NC(=O)[C@H](C)NC(=O)[C@H](CC(C)C)NC(=O)[C@H](CCCCN)NC(=O)[C@H](CC(C)C)NC(=O)[C@H](C)NC(=O)[C@H](CC(C)C)NC(=O)[C@H](CCCCN)NC(=O)CCCCCNC(=O)CCCC[C@@H]1SC[C@@H]2NC(=O)N[C@@H]21)C(=O)N[C@@H](CCCCN)C(=O)N[C@@H](C)C(=O)N[C@@H](C)C(=O)N[C@@H](CC(C)C)C(=O)N[C@@H](CCCCN)C(=O)N[C@@H](CC(C)C)C(=O)N[C@@H](C)C(N)=O [bKLA, b - KLALKLALKALKAALKLA-amide]
MDCK cells
  cytotoxic effects (trypan blue staining): No cytotoxic effects
In vitro
  IC50: 15 µM

## CC[C@H](C)[C@H](NC(=O)[C@H](CCCCN)NC(=O)[C@@H](NC(=O)[C@H](CCC(N)=O)NC(=O)[C@H](CCCNC(=N)N)NC(=O)CCCCCNC(=O)CCCC[C@@H]1SC[C@@H]2NC(=O)N[C@@H]21)[C@@H](C)CC)C(=O)N[C@@H](Cc1c[nH]c2ccccc12)C(=O)N[C@@H](Cc1ccccc1)C(=O)N1CCC[C@H]1C(=O)N[C@@H](CC(N)=O)C(=O)N[C@@H](CCCNC(=N)N)C(=O)N[C@@H](CCCNC(=N)N)C(=O)N[C@@H](CCSC)C(=O)N[C@@H](CCCCN)C(=O)N[C@@H](Cc1c[nH]c2ccccc12)C(=O)N[C@@H](CCCCN)C(=O)N[C@@H](CCCCN)C(=O)N1CCC[C@H]1C(=O)NCC(=O)N[C@@H](Cc1ccc(O)cc1)C(=O)N[C@@H](C)C(=O)NCC(=O)N[C@@H](C)C(=O)N[C@H](C(=O)N[C@H](C(=O)N[C@@H](CC(N)=O)C(=O)N[C@@H](CC(=O)O)C(=O)N[C@@H](CC(C)C)C(=O)O)C(C)C)C(C)C [bHOM-9, b - RQIKIWFPNRRMKWKK-9] ({Biotin-Ahx}-RQIKIWFPNRRMKWKKPGYAGAVVNDL-OH)
[3]
  antiviral effect against influenza A virus versus cytotoxic effects: antiviral and cytotoxic effects were inseparable
In vitro
  IC50: 50 µM

## CC(C)C[C@H](NC(=O)[C@H](CCCCN)NC(=O)[C@H](CCCCN)NC(=O)[C@H](CCCNC(=N)N)NC(=O)[C@@H](N)CCCNC(=N)N)C(=O)N[C@@H](C)C(=O)N[C@@H](C)C(=O)N[C@@H](CC(C)C)C(=O)N1CCC[C@H]1C(=O)N[C@@H](CC(C)C)C(=O)N[C@H](C(=O)N[C@@H](CC(C)C)C(=O)N[C@@H](C)C(=O)N[C@@H](C)C(=O)N1CCC[C@H]1C(=O)N[C@@H](CC(C)C)C(=O)N[C@@H](C)C(=O)N[C@H](C(=O)N[C@@H](CC(C)C)C(=O)N[C@@H](C)C(=O)O)C(C)C)C(C)C [EBX, RRKKLAALPLVLAAPLAVLA, reference compound] (H-RRKKLAALPLVLAAPLAVLA-OH)
cornea; mouse, in vivo
  corneal pathology: no evidence of corneal pathology
HSV-1 KOS mutant hrR3
  IC50: ~100 µM
[4]
  cytotoxicity to cells (MTS), overall: generally not cytotoxic
Vero cells
  cytotoxic effects: No cytotoxic effects
